{"source": "paper PMC5218480", "about": "(PLoS ONE, 2017)", "test_system": "MV-4-11 cells", "assay": "Gene expression microarray analysis (Affymetrix PrimeView) and GSEA", "type": "cell-based, human", "design": "RFU PODN (11730768_x_at) / Fold change /veh PODN (11730768_x_at) / RFU LINC00158 (11744669_a_at) / Fold change /veh LINC00158 (11744669_a_at) / RFU DUSP10 (11751237_a_at) / Fold change /veh DUSP10 (11751237_a_at) / RFU ID3 (11757404_x_at) / Fold change /veh ID3 (11757404_x_at) / RFU PLEKHG5 (11737974_s_at) / Fold change /veh PLEKHG5 (11737974_s_at) / RFU LRRC4B (11730491_at) / Fold change /veh LRRC4B (11730491_at) / RFU GIMAP4 (11747438_a_at) / Fold change /veh GIMAP4 (11747438_a_at) / RFU KRT8 (11758183_x_at) / Fold change /veh KRT8 (11758183_x_at) / RFU CNN1 (11734310_a_at) / Fold change /veh CNN1 (11734310_a_at) / RFU VPS37D (11726825_at) / Fold change /veh VPS37D (11726825_at) / RFU C10orf10 (11716522_x_at) / Fold change /veh C10orf10 (11716522_x_at) / RFU KIR2DL2 /// KIR2DL4 /// KIR2DL5A /// KIR2DL5B /// KIR2DS1 /// KIR2DS2 /// KIR2DS3 /// KIR2DS4 /// KIR3DL3 /// KIR3DL3 /// KIR3DS1 (11738374_at) / Fold change /veh KIR2DL2 /// KIR2DL4 /// KIR2DL5A /// KIR2DL5B /// KIR2DS1 /// KIR2DS2 /// KIR2DS3 /// KIR2DS4 /// KIR3DL3 /// KIR3DL3 /// KIR3DS1 (11738374_at) / RFU C1QL1 (11718748_at) / Fold change /veh C1QL1 (11718748_at) / RFU TMPRSS4 (11747572_a_at) / Fold change /veh TMPRSS4 (11747572_a_at) / RFU HAMP (11756126_x_at) / Fold change /veh HAMP (11756126_x_at) / RFU RNFT2 (11725882_a_at) / Fold change /veh RNFT2 (11725882_a_at) / RFU NR4A2 (11747474_a_at) / Fold change /veh NR4A2 (11747474_a_at) / RFU ABCC12 (11746883_a_at) / Fold change /veh ABCC12 (11746883_a_at) / RFU TMEM136 (11760407_x_at) / Fold change /veh TMEM136 (11760407_x_at) / RFU CLDN22 /// WWC2 (11732394_at) / Fold change /veh CLDN22 /// WWC2 (11732394_at) / RFU HLA-DPB1 (11760878_x_at) / Fold change /veh HLA-DPB1 (11760878_x_at) / RFU SPINT1 (11716480_a_at) / Fold change /veh SPINT1 (11716480_a_at) / RFU GAP43 (11754022_s_at) / Fold change /veh GAP43 (11754022_s_at) / RFU A4GNT (11735810_at) / Fold change /veh A4GNT (11735810_at) / RFU PRB3 (11715151_x_at) / Fold change /veh PRB3 (11715151_x_at) / RFU TUBB4B (11761932_at) / Fold change /veh TUBB4B (11761932_at) / RFU CAPN14 (11732068_a_at) / Fold change /veh CAPN14 (11732068_a_at) / RFU TMCC2 (11721928_a_at) / Fold change /veh TMCC2 (11721928_a_at) / RFU IRGQ (11745062_a_at) / Fold change /veh IRGQ (11745062_a_at) / RFU FAM174B (11720279_a_at) / Fold change /veh FAM174B (11720279_a_at) / RFU TMPRSS4 (11748680_a_at) / Fold change /veh TMPRSS4 (11748680_a_at) / RFU FAM212B (11763350_a_at) / Fold change /veh FAM212B (11763350_a_at) / RFU PLEKHG5 (11743358_a_at) / Fold change /veh PLEKHG5 (11743358_a_at) / RFU ZSCAN30 (11745921_a_at) / Fold change /veh ZSCAN30 (11745921_a_at) / RFU CMKLR1 (11741424_a_at) / Fold change /veh CMKLR1 (11741424_a_at) / RFU LOC101060620 /// MAPK8IP1 (11723275_at) / Fold change /veh LOC101060620 /// MAPK8IP1 (11723275_at) / RFU SPTSSB (11747773_x_at) / Fold change /veh SPTSSB (11747773_x_at) / RFU PRSS12 (11739890_at) / Fold change /veh PRSS12 (11739890_at) / RFU BIN1 (11741810_x_at) / Fold change /veh BIN1 (11741810_x_at) / RFU WNT11 (11732464_a_at) / Fold change /veh WNT11 (11732464_a_at) / RFU C10orf10 (11716521_a_at) / Fold change /veh C10orf10 (11716521_a_at) / RFU C5orf56 (11738089_at) / Fold change /veh C5orf56 (11738089_at) / RFU CYB561 (11721691_x_at) / Fold change /veh CYB561 (11721691_x_at) / RFU ANKRD19P (11752326_a_at) / Fold change /veh ANKRD19P (11752326_a_at) / RFU OR2T12 /// OR2T33 /// OR2T8 (11738714_s_at) / Fold change /veh OR2T12 /// OR2T33 /// OR2T8 (11738714_s_at) / RFU VCAN (11748164_a_at) / Fold change /veh VCAN (11748164_a_at) / RFU JSRP1 (11732532_at) / Fold change /veh JSRP1 (11732532_at) / RFU KRTAP10-11 (11738290_x_at) / Fold change /veh KRTAP10-11 (11738290_x_at) / RFU MYO3A (11730013_a_at) / Fold change /veh MYO3A (11730013_a_at) / RFU EBF3 (11725865_a_at) / Fold change /veh EBF3 (11725865_a_at) / RFU CAMK2N1 (11719241_x_at) / Fold change /veh CAMK2N1 (11719241_x_at) / RFU C5orf56 (11738088_a_at) / Fold change /veh C5orf56 (11738088_a_at) / RFU OLFML3 (11715873_a_at) / Fold change /veh OLFML3 (11715873_a_at) / RFU LOC100653217 /// NTM (11731650_a_at) / Fold change /veh LOC100653217 /// NTM (11731650_a_at) / RFU MAPK11 (11762145_a_at) / Fold change /veh MAPK11 (11762145_a_at) / RFU FIZ1 (11724087_x_at) / Fold change /veh FIZ1 (11724087_x_at) / RFU OASL (11726364_x_at) / Fold change /veh OASL (11726364_x_at) / RFU SOX15 (11748057_x_at) / Fold change /veh SOX15 (11748057_x_at) / RFU CD79A (11719716_a_at) / Fold change /veh CD79A (11719716_a_at) / RFU HIST1H1D (11736915_at) / Fold change /veh HIST1H1D (11736915_at) / RFU CASKIN2 (11723855_a_at) / Fold change /veh CASKIN2 (11723855_a_at) / RFU LOC730098 (11760151_x_at) / Fold change /veh LOC730098 (11760151_x_at) / RFU OR4N2 (11742367_at) / Fold change /veh OR4N2 (11742367_at) / RFU PRRT2 (11749266_a_at) / Fold change /veh PRRT2 (11749266_a_at) / RFU SNX32 (11753110_a_at) / Fold change /veh SNX32 (11753110_a_at) / RFU CDHR5 (11726645_a_at) / Fold change /veh CDHR5 (11726645_a_at) / RFU RCAN1 (11760418_a_at) / Fold change /veh RCAN1 (11760418_a_at) / RFU FAM167A (11723789_a_at) / Fold change /veh FAM167A (11723789_a_at) / RFU FAM26E (11764081_at) / Fold change /veh FAM26E (11764081_at) / RFU ISYNA1 (11749810_s_at) / Fold change /veh ISYNA1 (11749810_s_at) / RFU ACY1 (11761880_at) / Fold change /veh ACY1 (11761880_at) / RFU 11764098_at / Fold change /veh 11764098_at / RFU SAMD14 (11745864_x_at) / Fold change /veh SAMD14 (11745864_x_at) / RFU NPB (11741838_a_at) / Fold change /veh NPB (11741838_a_at) / RFU TMPRSS6 (11731388_a_at) / Fold change /veh TMPRSS6 (11731388_a_at) / RFU KRTAP10-2 (11738614_at) / Fold change /veh KRTAP10-2 (11738614_at) / RFU ARHGAP8 /// PRR5-ARHGAP8 (11727945_x_at) / Fold change /veh ARHGAP8 /// PRR5-ARHGAP8 (11727945_x_at) / RFU KRTAP5-7 /// NADSYN1 (11734609_at) / Fold change /veh KRTAP5-7 /// NADSYN1 (11734609_at) / RFU RASL12 (11751679_a_at) / Fold change /veh RASL12 (11751679_a_at) / RFU CDKN2B (11736163_a_at) / Fold change /veh CDKN2B (11736163_a_at) / RFU PRF1 (11729649_at) / Fold change /veh PRF1 (11729649_at) / RFU, ZNF638 /// ZNF638-IT1 / Fold change vs veh, ZNF638 /// ZNF638-IT1 / RFU, PANK3 / Fold change vs veh, PANK3 / RFU, SH3YL1 / Fold change vs veh, SH3YL1 / RFU, ZEB2 / Fold change vs veh, ZEB2 / RFU, NRIP1 / Fold change vs veh, NRIP1 / RFU, PTTG1IP / Fold change vs veh, PTTG1IP / RFU, CAPN2 / Fold change vs veh, CAPN2 / RFU, MED14 / Fold change vs veh, MED14 / RFU, SNORA58 / Fold change vs veh, SNORA58 / RFU, C1orf63 / Fold change vs veh, C1orf63 / RFU, LRRFIP1 / Fold change vs veh, LRRFIP1 / RFU, NDUFAF7 / Fold change vs veh, NDUFAF7 / RFU, SLC12A2 / Fold change vs veh, SLC12A2 / RFU, IBTK / Fold change vs veh, IBTK / RFU, ESF1 / Fold change vs veh, ESF1 / Fold change vs veh, TMEM50B / RFU, TAOK1 / Fold change vs veh, TAOK1 / RFU, ACBD3 / Fold change vs veh, ACBD3 / RFU, TMA16 / Fold change vs veh, TMA16 / RFU, RWDD3 / Fold change vs veh, RWDD3 / RFU, BCAT1 / Fold change vs veh, BCAT1 / RFU, EDEM3 / Fold change vs veh, EDEM3 / RFU, TMEM33 / Fold change vs veh, TMEM33 / RFU, WDR75 / Fold change vs veh, WDR75 / RFU, AHCTF1 / Fold change vs veh, AHCTF1 / RFU, TFRC / Fold change vs veh, TFRC / RFU, ZDHHC17 / Fold change vs veh, ZDHHC17 / RFU, NOM1 / Fold change vs veh, NOM1 / RFU, ARL8B / Fold change vs veh, ARL8B / RFU, ZBTB11 / Fold change vs veh, ZBTB11 / RFU, TAMM41 / Fold change vs veh, TAMM41 / RFU, KIAA1704 /// LOC100996395 / Fold change vs veh, KIAA1704 /// LOC100996395 / RFU, ING1 / Fold change vs veh, ING1 / RFU, TRMT61B / Fold change vs veh, TRMT61B / RFU, FUBP3 / Fold change vs veh, FUBP3 / RFU, TP53 / Fold change vs veh, TP53 / RFU, TNKS2 / Fold change vs veh, TNKS2 / RFU, ZFP14 / Fold change vs veh, ZFP14 / RFU, ACTR2 / Fold change vs veh, ACTR2 / RFU, PPP3R1 / Fold change vs veh, PPP3R1 / RFU, PIK3R1 / Fold change vs veh, PIK3R1 / RFU, HNRNPA1 / Fold change vs veh, HNRNPA1 / RFU, RNF170 / Fold change vs veh, RNF170 / RFU, ZNF28 / Fold change vs veh, ZNF28 / RFU, RNGTT / Fold change vs veh, RNGTT / RFU, OGT / Fold change vs veh, OGT / RFU, BRD1 / Fold change vs veh, BRD1 / RFU, MARS / Fold change vs veh, MARS / RFU, ZNF655 / Fold change vs veh, ZNF655 / RFU, FAHD1 / Fold change vs veh, FAHD1 / RFU, BDP1 / Fold change vs veh, BDP1 / RFU, LRRCC1 / Fold change vs veh, LRRCC1 / RFU, ARID1A / Fold change vs veh, ARID1A / RFU, ZNF146 / Fold change vs veh, ZNF146 / RFU, ZNF330 / Fold change vs veh, ZNF330 / RFU, GPN3 / Fold change vs veh, GPN3 / RFU, C9orf123 / Fold change vs veh, C9orf123 / RFU, N4BP2L2 / Fold change vs veh, N4BP2L2 / RFU, ARFIP1 / Fold change vs veh, ARFIP1 / RFU, FAM179B / Fold change vs veh, FAM179B / RFU, BCL10 / Fold change vs veh, BCL10 / RFU, UHRF1BP1L / Fold change vs veh, UHRF1BP1L / RFU, BET1 / Fold change vs veh, BET1 / RFU, CNOT2 / Fold change vs veh, CNOT2 / RFU, ZNF268 / Fold change vs veh, ZNF268 / Fold change vs veh, ZNF507 / RFU, DGCR2 / Fold change vs veh, DGCR2 / RFU, WDSUB1 / Fold change vs veh, WDSUB1 / Fold change vs veh, HSP90B1 /// MIR3652 / RFU, ADSS / Fold change vs veh, ADSS / RFU, GK / Fold change vs veh, GK / RFU, ZNF148 / Fold change vs veh, ZNF148 / RFU, TAF9 / Fold change vs veh, TAF9 / RFU, SLC1A5 / Fold change vs veh, SLC1A5 / RFU, SLMO2 / Fold change vs veh, SLMO2 / RFU, ABCC4 / Fold change vs veh, ABCC4 / RFU, LOC101060439 /// RAP1B / Fold change vs veh, LOC101060439 /// RAP1B / RFU, RFX7 / Fold change vs veh, RFX7 / RFU, GTPBP10 / Fold change vs veh, GTPBP10 / RFU, CNEP1R1 / Fold change vs veh, CNEP1R1 / RFU, BIVM-ERCC5 /// ERCC5 / Fold change vs veh, BIVM-ERCC5 /// ERCC5 / RFU, ILF3 / Fold change vs veh, ILF3 / RFU 11762660_at / Fold change /veh 11762660_at / RFU VCAN (11757783_s_at) / Fold change /veh VCAN (11757783_s_at) / RFU DDX43 (11728927_at) / Fold change /veh DDX43 (11728927_at) / RFU KRT8 (11758188_x_at) / Fold change /veh KRT8 (11758188_x_at) / RFU NKD1 (11759106_at) / Fold change /veh NKD1 (11759106_at) / RFU SRD5A1 (11742802_a_at) / Fold change /veh SRD5A1 (11742802_a_at) / RFU TPSAB1 /// TPSB2 (11721975_s_at) / Fold change /veh TPSAB1 /// TPSB2 (11721975_s_at) / RFU GSTM3 (11746129_a_at) / Fold change /veh GSTM3 (11746129_a_at) / RFU IL23R (11737362_x_at) / Fold change /veh IL23R (11737362_x_at) / RFU TMEM51 (11727254_a_at) / Fold change /veh TMEM51 (11727254_a_at) / RFU PIWIL2 (11732686_x_at) / Fold change /veh PIWIL2 (11732686_x_at) / RFU ORM1 (11744905_x_at) / Fold change /veh ORM1 (11744905_x_at) / RFU CCDC152 (11743942_at) / Fold change /veh CCDC152 (11743942_at) / RFU ECM1 (11717891_a_at) / Fold change /veh ECM1 (11717891_a_at) / RFU IL23R (11748794_a_at) / Fold change /veh IL23R (11748794_a_at) / RFU TNFAIP8L3 (11732012_x_at) / Fold change /veh TNFAIP8L3 (11732012_x_at) / RFU MBOAT4 (11741988_at) / Fold change /veh MBOAT4 (11741988_at) / RFU 11764193_at / Fold change /veh 11764193_at / RFU TMEM53 (11763286_at) / Fold change /veh TMEM53 (11763286_at) / RFU MAGEB2 (11727129_at) / Fold change /veh MAGEB2 (11727129_at) / RFU TMEM200A (11744735_a_at) / Fold change /veh TMEM200A (11744735_a_at) / RFU CCDC152 (11751479_a_at) / Fold change /veh CCDC152 (11751479_a_at) / RFU FAM211A (11726209_a_at) / Fold change /veh FAM211A (11726209_a_at) / RFU RGS16 (11746705_a_at) / Fold change /veh RGS16 (11746705_a_at) / RFU VCAN (11755009_s_at) / Fold change /veh VCAN (11755009_s_at) / RFU RHOB (11743442_s_at) / Fold change /veh RHOB (11743442_s_at) / RFU RGS16 (11720943_a_at) / Fold change /veh RGS16 (11720943_a_at) / RFU RGS16 (11720944_at) / Fold change /veh RGS16 (11720944_at) / RFU, VPS4B / Fold change vs veh, VPS4B / RFU, CREB1 / Fold change vs veh, CREB1 / RFU, DNAJC13 / Fold change vs veh, DNAJC13 / RFU, GNAQ / Fold change vs veh, GNAQ / RFU, CDK5R1 / Fold change vs veh, CDK5R1 / RFU, ZRANB3 / Fold change vs veh, ZRANB3 / RFU, CUL4A / Fold change vs veh, CUL4A / RFU, CCNY / Fold change vs veh, CCNY / RFU, UFL1 / Fold change vs veh, UFL1 / RFU, COG3 / Fold change vs veh, COG3 / RFU, DIAPH2 / Fold change vs veh, DIAPH2 / RFU, SKA2 / Fold change vs veh, SKA2 / RFU, AFF3 / Fold change vs veh, AFF3 / RFU, LMF1 / Fold change vs veh, LMF1 / RFU, IPO11 / Fold change vs veh, IPO11 / RFU, DFFB / Fold change vs veh, DFFB / RFU, FOXP1 / Fold change vs veh, FOXP1 / RFU, CARD8 / Fold change vs veh, CARD8 / RFU, STRN3 / Fold change vs veh, STRN3 / RFU, ADK / Fold change vs veh, ADK / RFU, RASSF2 / Fold change vs veh, RASSF2 / RFU, WIPF1 / Fold change vs veh, WIPF1 / RFU, LARP1B / Fold change vs veh, LARP1B / RFU, RASA1 / Fold change vs veh, RASA1 / RFU, RB1 / Fold change vs veh, RB1 / RFU, PPFIA1 / Fold change vs veh, PPFIA1 / RFU, MAT2A / Fold change vs veh, MAT2A / RFU, CCT5 / Fold change vs veh, CCT5 / RFU, WDR92 / Fold change vs veh, WDR92 / RFU, CUX1 / Fold change vs veh, CUX1 / RFU, TTC7A / Fold change vs veh, TTC7A / RFU, TMEM135 / Fold change vs veh, TMEM135 / RFU, DEPTOR / Fold change vs veh, DEPTOR / RFU, CPM / Fold change vs veh, CPM / RFU, DNAJB6 / Fold change vs veh, DNAJB6 / RFU, CACNA2D3 / Fold change vs veh, CACNA2D3 / RFU, DTX4 / Fold change vs veh, DTX4 / RFU, TFCP2 / Fold change vs veh, TFCP2 / RFU, GMCL1 /// GMCL1P1 / Fold change vs veh, GMCL1 /// GMCL1P1 / RFU, AEBP2 / Fold change vs veh, AEBP2 / RFU, SNHG1 /// SNORD22 /// SNORD25 /// SNORD26 /// SNORD27 /// SNORD28 /// SNORD29 /// SNORD31 / Fold change vs veh, SNHG1 /// SNORD22 /// SNORD25 /// SNORD26 /// SNORD27 /// SNORD28 /// SNORD29 /// SNORD31 / Fold change (Aza/veh), C12orf56 (ProbeSet 11735607_a_at) / Fold change (ACY-1035/veh), C12orf56 (ProbeSet 11735607_a_at) / Fold change (Aza/veh), FGFR1OP (ProbeSet 11751329_s_at) / Fold change (ACY-1035/veh), FGFR1OP (ProbeSet 11751329_s_at) / Fold change (Aza/veh), VPS36 (ProbeSet 11739960_a_at) / Fold change (ACY-1035/veh), VPS36 (ProbeSet 11739960_a_at) / RFU SYPL1 (11715823_x_at) / Fold change /veh SYPL1 (11715823_x_at) / RFU IGFBP7 (11715501_s_at) / Fold change /veh IGFBP7 (11715501_s_at) / RFU REEP3 (11722064_at) / Fold change /veh REEP3 (11722064_at) / RFU IGLL1 (11728026_x_at) / Fold change /veh IGLL1 (11728026_x_at): dose or concentration left out as unconfirmed", "conditions": "ProbeSet 11716891_at; LIST B"}
{"smiles": "Nc1ccc(-c2cccs2)cc1NC(=O)c1ccc2c(c1)cc(C1CC1)n2CCN1CCOCC1", "note": "[ACY-1035]", "values": [{"measurement": "Fold change vs veh, C9orf123", "result": 1.03}]}
